Test results published in patent US10787413B2, “Derivatives of curcuminoids and use thereof as an anticancer agent” (CHINA MEDICAL UNIVERSITY, priority 2016, dated 2020).
Where two headings read alike, the source gives them in different places.

Columns and labels:
MDA-MB-468 = assay: Cell viability, MDA-MB-468 breast cancer cells; format: cell-based; details: Homo sapiens; MDA-MB-468 (Triple negative), treated for 24 h
Protocol: (§1) Cell viability was evaluated by measuring the reduction in MTT to yield blue formazan. Cells were cultured in 96-well plates, allowed to attach overnight, and then treated with compounds. After treatment, MTT solution (1 mg/ml) was added to each well, and plates were incubated for another 4 h. Medium were removed, blue formazan was dissolved in DMSO, and the absorbance was read at 570 nm^20.

MCF-7 = assay: Cell viability, MCF-7 breast cancer cells; format: cell-based; details: Homo sapiens, MCF7; MCF-7 (ER+/PR+), treated for 24 h
Protocol: as §1

[1] = tested on: MDA-MB-231 breast cancer cell; assay: MTT cell viability assay, MDA-MB-231 breast cancer cell; format: cell-based, human; details: Homo sapiens
Protocol: Cell viability was evaluated by measuring the reduction in MTT to yield blue formazan. Cells were cultured in 96-well plates, allowed to attach overnight, and then treated with compounds. After treatment, MTT solution (1 mg/ml) was added to each well, and plates were incubated for another 4 h.

MDA-MB-157 = assay: Cell viability, MDA-MB-157 breast cancer cells; format: cell-based; details: Homo sapiens; MDA-MB-157 (Triple negative), treated for 24 h
Protocol: as §1

PC3 prostate cancer cell = assay: MTT cell viability assay, PC3 prostate cancer cell; format: cell-based
Protocol: as §1

HS-578T = assay: Cell viability, HS-578T breast cancer cells; format: cell-based; details: Homo sapiens; HS-578T (Triple negative), treated for 24 h
Protocol: as §1

MDA-MB-453 = assay: Cell viability, MDA-MB-453 breast cancer cells; format: cell-based; details: Homo sapiens; MDA-MB-453 (Her-2+), treated for 24 h
Protocol: as §1

MDA-MB-231 Xenograft = assay: In vivo antitumor activity, MDA-MB-231 Xenograft nude mice model; details: treated vs untreated control group during antitumor evaluation
Protocol: Female nu/nu mice (5 weeks old) were from National Laboratory Animal Center, Taipei, Taiwan. Mice were maintained under the procedures and guidelines from the Institutional Animal Care and Use Committee of the National Health Research Institutes, Taipei, Taiwan. All experiments were supervised under the Institutional Animal Care and Use Committee, China Medical University, Taichung, Taiwan. MDA-MB-231 breast cancer cells (5×10^6 cells per mouse) were suspended in 0.1 ml of Matrigel solution (50% (v/v) Matrigel in PBS) and inoculated into the mammary fat pads of the mice. […] Compounds was administered P.O. once every day for 32 days. Tumor size and mouse body weight were measured once every 4 days, and tumor volume (mm3) was calculated using the equation: length×(width)^2×0.5. At the end of experiments, mice were sacrificed and tumor nodules were dissected and weighed.

SKBR-3 = assay: Cell viability, SKBR-3 breast cancer cells; format: cell-based; details: Homo sapiens, SK-BR-3; SKBR-3 (Her-2+), treated for 24 h
Protocol: as §1

T47D = assay: Cell viability, T47D breast cancer cells; format: cell-based; details: Homo sapiens; T47D (ER+/PR+), treated for 24 h
Protocol: as §1

[2] = tested on: Doxorubicin-resistant MDA-MB-231; assay: Cell viability, Doxorubicin-resistant MDA-MB-231; format: cell-based; details: Doxorubicin-resistant MDA-MB-231, treated for 24 h
Protocol: as §1

[3] = tested on: HCT-116 colon cancer cell; assay: MTT cell viability assay, HCT-116 colon cancer cell; format: cell-based; details: Homo sapiens
Protocol: as §1

BT-474 = assay: Cell viability, BT-474 breast cancer cells; format: cell-based; details: Homo sapiens; BT-474 (Her-2+), treated for 24 h
Protocol: as §1

SMILES: COc1cc(/C=C/C(=O)/C=C(O)/C=C/c2ccc(O)c(OC)c2)ccc1O [Curcumin, (E,E)-1,7-bis (4-hydroxy-3-methoxyphenyl)-1,6-heptadiene-3,5-dione]
- IC50 (MDA-MB-468): 42.9 ± 2.35 µM
- IC50 (MCF-7): 42.9 ± 2.36 µM
- IC50 ([1]; MDA-MB-231, 24 h, read-out: IC50 24 hours): 38.8 ± 3.35 µM
- IC50 ([1]; MDA-MB-231, 48 h, read-out: IC50 48 hours): 22.1 ± 2.97 µM
- IC50 ([1]; MDA-MB-231, treated 72 hours, read-out: IC50 72 hours): 16.2 µM
- IC50 (MDA-MB-157): 40.4 ± 3.26 µM
- IC50 (PC3 prostate cancer cell; PC-3, treated 24 hours, read-out: IC50 24 hours): 57.1 ± 10.1 µM
- IC50 (PC3 prostate cancer cell; PC-3, treated 48 hours, read-out: IC50 48 hours): 30 ± 0.72 µM
- IC50 (PC3 prostate cancer cell; PC-3, treated 72 hours, read-out: IC50 72 hours): 18.8 ± 1.31 µM
- IC50 (HS-578T): 55.5 ± 1.39 µM
- IC50 (MDA-MB-453): 32.4 ± 1.41 µM
- body weight, behavior change and blood chemistry (serology detection) (MDA-MB-231 Xenograft): no significant difference
- IC50 (SKBR-3): 42.8 ± 1.47 µM
- IC50 (T47D): 47.9 ± 3.9 µM
- IC50 [2]: 58.6 ± 4.03 µM
- IC50 ([2]; Homo sapiens, MDA-MB-231, 24 h): 57.6 µM
- IC50 ([3]; HCT-116, treated 24 hours, read-out: IC50 24 hours): 78 ± 11.2 µM
- IC50 ([3]; HCT-116, treated 48 hours, read-out: IC50 48 hours): 26.3 ± 1.38 µM
- IC50 ([3]; HCT-116, treated 72 hours, read-out: IC50 72 hours): 13.8 ± 0.5 µM
- IC50 (BT-474): 30.1 ± 1.42 µM
